Laboratory results from paper PMC6416464 (Drug Metabolism Letters, 2018).
Where two headings read alike, the source gives them in different places.

Legend:
[1] = Metabolic stability, incubation with human liver cytosol; type: in vitro ADME; details: 1 µM test compound, 1 mg/mL protein
CYP3A4 [2] = molecular target: T1, CYP3A4 (Homo sapiens, UniProt P08684); details: microsomes
rCYP3A4 = rCYP3A4 (Homo sapiens, UniProt P08684)
CYP3A4 [3] = molecular target: T1, CYP3A4; experiment: in vitro; details: microsomes, pH 7.4, % Inhibition of Control Activity CYP3A4 (substrate, testosterone)
CYP3A4 [4] = molecular target: T1, CYP3A4; experiment: in vitro; details: microsomes, pH 7.4
[5] = Metabolic stability, incubation with human liver microsomes; details: 1 µM test compound, 0.5 mg/mL protein
CYP2C8 = molecular target: T2, CYP2C8 (Homo sapiens, UniProt P10632); experiment: CYP inhibition in human liver microsomes, CYP2C8; details: for % Inhibition of Control Activity CYP2C8: NI: No Inhibitin
T2 sequence (P10632 1-490): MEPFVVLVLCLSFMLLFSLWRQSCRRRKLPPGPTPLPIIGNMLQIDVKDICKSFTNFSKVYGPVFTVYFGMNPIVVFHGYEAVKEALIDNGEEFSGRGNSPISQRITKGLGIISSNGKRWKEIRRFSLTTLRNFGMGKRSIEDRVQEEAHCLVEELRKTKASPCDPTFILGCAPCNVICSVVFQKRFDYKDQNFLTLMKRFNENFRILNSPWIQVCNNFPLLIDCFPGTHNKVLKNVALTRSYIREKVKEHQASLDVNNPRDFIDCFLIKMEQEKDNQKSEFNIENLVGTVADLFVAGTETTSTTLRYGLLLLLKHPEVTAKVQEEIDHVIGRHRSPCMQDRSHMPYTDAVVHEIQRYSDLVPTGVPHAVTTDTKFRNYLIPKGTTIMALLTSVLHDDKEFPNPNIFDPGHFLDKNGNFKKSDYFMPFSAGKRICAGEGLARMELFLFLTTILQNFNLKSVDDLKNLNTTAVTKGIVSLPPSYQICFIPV

CYP2C9 = CYP2C9 (Homo sapiens, UniProt P11712); experiment: CYP inhibition in human liver microsomes, CYP2C9; details: HLM; for % Inhibition of Control Activity CYP2C9: NI: No Inhibitin
CYP2D6 = CYP2D6 (Homo sapiens, UniProt P10635); experiment: CYP inhibition in human liver microsomes, CYP2D6; details: HLM, NI: No Inhibitin
rCYP1A2 = molecular target: T3, rCYP1A2 (Homo sapiens, UniProt P05177); experiment: Metabolic stability / reaction phenotyping with recombinant human CYP1A2; details: for % Metabolized at 30 min Incubation with Human Liver Fractions/Enzymes rCYP1A2: 1 µM test compound, 100 pmol/mL
T3 sequence (P05177 1-516): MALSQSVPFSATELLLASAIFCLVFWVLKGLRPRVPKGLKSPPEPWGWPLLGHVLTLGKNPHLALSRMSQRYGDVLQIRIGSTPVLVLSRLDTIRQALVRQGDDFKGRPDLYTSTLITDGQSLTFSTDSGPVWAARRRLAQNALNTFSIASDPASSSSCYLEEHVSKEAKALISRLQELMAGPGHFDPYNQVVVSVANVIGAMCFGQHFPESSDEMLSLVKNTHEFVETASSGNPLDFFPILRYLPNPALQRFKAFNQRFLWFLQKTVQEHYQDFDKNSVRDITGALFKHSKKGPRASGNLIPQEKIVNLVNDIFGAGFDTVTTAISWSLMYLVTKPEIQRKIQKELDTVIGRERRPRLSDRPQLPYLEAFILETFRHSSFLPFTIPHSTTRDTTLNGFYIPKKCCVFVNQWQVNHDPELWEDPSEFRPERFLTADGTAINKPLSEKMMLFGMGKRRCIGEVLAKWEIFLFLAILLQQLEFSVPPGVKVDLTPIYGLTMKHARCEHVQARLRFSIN

rCYP2C8 = molecular target: T4, rCYP2C8 (Homo sapiens, UniProt P10632); experiment: Metabolic stability / reaction phenotyping with recombinant human CYP2C8; details: for % Metabolized at 30 min Incubation with Human Liver Fractions/Enzymes rCYP2C8: 1 µM test compound, 100 pmol/mL
T4 sequence (P10632 1-490): T2 sequence (P10632 1-490)

rCYP2C9 = rCYP2C9 (Homo sapiens, UniProt P11712); experiment: Metabolic stability / reaction phenotyping with recombinant human CYP2C9; details: for % Metabolized at 30 min Incubation with Human Liver Fractions/Enzymes rCYP2C9: 1 µM test compound, 100 pmol/mL
rCYP2D6 = rCYP2D6 (Homo sapiens, UniProt P10635); experiment: Metabolic stability / reaction phenotyping with recombinant human CYP2D6; details: for % Metabolized at 30 min Incubation with Human Liver Fractions/Enzymes rCYP2D6: 1 µM test compound, 100 pmol/mL
rCYP2C19 = rCYP2C19 (Homo sapiens, UniProt P33261); experiment: Metabolic stability / reaction phenotyping with recombinant human CYP2C19; details: for % Metabolized at 30 min Incubation with Human Liver Fractions/Enzymes rCYP2C19: 1 µM test compound, 100 pmol/mL
[6] = cited from earlier work
CYP1A2 = molecular target: T5, CYP1A2 (Homo sapiens, UniProt P05177); experiment: CYP inhibition in human liver microsomes, CYP1A2; details: HLM; for % Inhibition of Control Activity CYP1A2: NI: No Inhibitin
T5 sequence (P05177 1-516): T3 sequence (P05177 1-516)

CYP2C19 = CYP2C19 (Homo sapiens, UniProt P33261); experiment: CYP inhibition in human liver microsomes, CYP2C19; details: HLM; for % Inhibition of Control Activity CYP2C19: NI: No Inhibitin
[7] = human, recombinant enzyme, pH 7.4
[8] = human, human liver microsomes, pH 7.4, probe paclitaxel
[9] = human, recombinant human CYP1A2, 1 µM, pH 7.4
[10] = human, recombinant human CYP2C8, 1 µM, pH 7.4
[11] = human, recombinant human CYP2D6, 1 µM, pH 7.4
[12] = human, recombinant human CYP2C19, 1 µM, pH 7.4

Sequence of rCYP2C19 (P33261 whole entry): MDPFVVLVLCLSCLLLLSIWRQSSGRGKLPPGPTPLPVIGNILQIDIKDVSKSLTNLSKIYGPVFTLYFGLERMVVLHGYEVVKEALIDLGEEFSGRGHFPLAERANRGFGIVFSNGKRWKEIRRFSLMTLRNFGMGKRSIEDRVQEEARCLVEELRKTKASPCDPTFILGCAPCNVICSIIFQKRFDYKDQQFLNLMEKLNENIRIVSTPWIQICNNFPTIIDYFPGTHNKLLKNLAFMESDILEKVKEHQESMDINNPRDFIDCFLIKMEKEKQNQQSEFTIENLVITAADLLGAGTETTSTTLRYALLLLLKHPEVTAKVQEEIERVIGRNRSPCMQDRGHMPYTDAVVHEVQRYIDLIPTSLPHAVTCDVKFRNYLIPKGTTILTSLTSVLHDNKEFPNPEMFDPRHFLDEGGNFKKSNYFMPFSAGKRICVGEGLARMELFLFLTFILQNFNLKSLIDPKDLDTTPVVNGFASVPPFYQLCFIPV
Sequence of CYP2C19 (P33261 whole entry): as above
T1 sequence (P08684 2-503): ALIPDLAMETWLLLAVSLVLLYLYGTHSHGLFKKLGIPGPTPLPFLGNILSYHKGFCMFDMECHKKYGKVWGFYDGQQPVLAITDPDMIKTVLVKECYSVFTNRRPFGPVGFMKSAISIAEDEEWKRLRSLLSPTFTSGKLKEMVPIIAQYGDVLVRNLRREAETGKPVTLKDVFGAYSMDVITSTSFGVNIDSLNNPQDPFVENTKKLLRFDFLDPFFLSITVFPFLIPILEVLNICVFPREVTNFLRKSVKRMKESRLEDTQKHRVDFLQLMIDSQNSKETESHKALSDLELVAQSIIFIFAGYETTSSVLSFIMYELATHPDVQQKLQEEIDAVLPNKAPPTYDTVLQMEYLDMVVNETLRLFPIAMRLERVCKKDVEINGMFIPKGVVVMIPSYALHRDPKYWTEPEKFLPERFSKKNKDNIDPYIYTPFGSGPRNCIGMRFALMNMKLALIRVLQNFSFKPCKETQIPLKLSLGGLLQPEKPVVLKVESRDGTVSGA
Sequence of CYP2D6 (P10635 whole entry): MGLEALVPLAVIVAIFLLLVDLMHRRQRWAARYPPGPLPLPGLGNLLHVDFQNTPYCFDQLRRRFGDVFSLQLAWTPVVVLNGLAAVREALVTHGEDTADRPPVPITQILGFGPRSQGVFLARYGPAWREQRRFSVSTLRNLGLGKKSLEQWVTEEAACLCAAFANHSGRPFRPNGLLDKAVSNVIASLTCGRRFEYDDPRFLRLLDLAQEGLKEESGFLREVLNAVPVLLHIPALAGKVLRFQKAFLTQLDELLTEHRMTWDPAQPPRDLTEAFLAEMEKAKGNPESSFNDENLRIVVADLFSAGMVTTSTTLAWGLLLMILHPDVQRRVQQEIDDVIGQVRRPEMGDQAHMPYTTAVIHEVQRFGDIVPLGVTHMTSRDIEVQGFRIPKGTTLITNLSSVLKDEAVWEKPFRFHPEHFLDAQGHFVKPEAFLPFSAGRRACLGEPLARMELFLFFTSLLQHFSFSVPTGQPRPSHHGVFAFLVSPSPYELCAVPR
Sequence of rCYP2D6 (P10635 whole entry): as above
Sequence of rCYP3A4 (P08684 whole entry): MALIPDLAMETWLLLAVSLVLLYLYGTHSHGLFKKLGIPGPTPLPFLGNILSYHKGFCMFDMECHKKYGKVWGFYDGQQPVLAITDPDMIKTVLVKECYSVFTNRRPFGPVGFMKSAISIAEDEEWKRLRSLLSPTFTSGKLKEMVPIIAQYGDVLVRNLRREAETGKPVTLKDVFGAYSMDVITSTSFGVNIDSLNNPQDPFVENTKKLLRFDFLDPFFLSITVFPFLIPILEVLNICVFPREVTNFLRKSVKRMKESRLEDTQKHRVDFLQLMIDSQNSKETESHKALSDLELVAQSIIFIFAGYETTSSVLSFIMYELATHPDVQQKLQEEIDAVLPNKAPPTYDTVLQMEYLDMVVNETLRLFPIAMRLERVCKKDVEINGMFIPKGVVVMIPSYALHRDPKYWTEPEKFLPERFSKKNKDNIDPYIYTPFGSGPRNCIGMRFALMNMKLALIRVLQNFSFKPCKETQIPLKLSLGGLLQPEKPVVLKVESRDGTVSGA
Sequence of CYP2C9 (P11712 whole entry): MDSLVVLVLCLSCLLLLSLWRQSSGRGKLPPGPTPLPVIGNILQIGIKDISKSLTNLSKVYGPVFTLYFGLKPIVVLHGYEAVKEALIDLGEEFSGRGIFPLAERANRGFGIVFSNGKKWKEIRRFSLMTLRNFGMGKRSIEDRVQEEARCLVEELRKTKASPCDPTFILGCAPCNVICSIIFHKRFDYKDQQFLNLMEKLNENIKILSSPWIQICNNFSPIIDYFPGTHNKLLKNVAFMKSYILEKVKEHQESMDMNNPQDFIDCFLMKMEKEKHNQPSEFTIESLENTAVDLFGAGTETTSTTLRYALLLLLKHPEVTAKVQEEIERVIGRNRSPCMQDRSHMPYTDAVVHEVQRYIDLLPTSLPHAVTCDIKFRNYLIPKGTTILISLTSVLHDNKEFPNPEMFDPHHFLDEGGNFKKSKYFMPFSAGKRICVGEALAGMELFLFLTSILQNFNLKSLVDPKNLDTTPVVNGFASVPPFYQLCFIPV
Sequence of rCYP2C9 (P11712 whole entry): as above

O=C1Cc2cc(CCN3CCN(c4nsc5ccccc45)CC3)c(Cl)cc2N1 [Ziprasidone, ziprasidone, reference compound]
% Metabolized at 30 min Incubation with Human Liver Fractions/Enzymes Cytosol [1]: 10.86% | % Inhibition of Control Activity CYP3A4 (substrate, testosterone) (CYP3A4 [2]; human, 10 µM, pH 7.4): 33.06% | Predicted Microsomal Clint, CYP3A4 (rCYP3A4; human, pH 7.4): 53.530 µL/min/mg Protein | % Metabolized at 30 min Incubation with Human Liver Fractions/Enzymes rCYP3A4 (rCYP3A4; human, recombinant enzyme, 0.5 h, pH 7.4): 76.47% | % Contribution of CYP Enzymes (fmCYP) in Metabolism, CYP3A4 (rCYP3A4; [7]): 86.67% | rCYP Clint, CYP3A4 (rCYP3A4; [7]): 0.482 µL/min/pmol | inhibition at 2 µM (CYP3A4 [3]): 8.3% | inhibition at 2 µM (CYP3A4 [4]): 22% | inhibition at 10 µM (CYP3A4 [4]): 31.1% | % Metabolized at 30 min Incubation with Human Liver Fractions/Enzymes HLM [5]: 83.11% | inhibition at 2 µM (CYP2C8; [8]): < 0% | inhibition at 10 µM (CYP2C8; [8]): 12% | % Inhibition of Control Activity CYP2C9 (CYP2C9; inhibitor 10 µM, 10 µM): 1.44% | % Inhibition of Control Activity CYP2D6 (CYP2D6; inhibitor 10 µM, 10 µM): 11.70% | % Metabolized at 30 min Incubation with Human Liver Fractions/Enzymes rCYP1A2 (rCYP1A2): 5.98% | % Contribution of CYP Enzymes (fmCYP) in Metabolism, CYP1A2 (rCYP1A2; [9]): 1.73% | Predicted Microsomal Clint, CYP1A2 (rCYP1A2; [9]): 1.069 µL/min/mg Protein | rCYP Clint, CYP1A2 (rCYP1A2; [9]): 0.021 µL/min/pmol | % Metabolized at 30 min Incubation with Human Liver Fractions/Enzymes rCYP2C8 (rCYP2C8): 22.84% | % Contribution of CYP Enzymes (fmCYP) in Metabolism, CYP2C8 (rCYP2C8; [10]): 8.96% | Predicted Microsomal Clint, CYP2C8 (rCYP2C8; [10]): 5.532 µL/min/mg Protein | rCYP Clint, CYP2C8 (rCYP2C8; [10]): 0.086 µL/min/pmol | % Metabolized at 30 min Incubation with Human Liver Fractions/Enzymes rCYP2C9 (rCYP2C9): 0.00% | % Metabolized at 30 min Incubation with Human Liver Fractions/Enzymes rCYP2D6 (rCYP2D6): 3.73% | % Contribution of CYP Enzymes (fmCYP) in Metabolism, CYP2D6 (rCYP2D6; [11]): 0.21% | Predicted Microsomal Clint, CYP2D6 (rCYP2D6; [11]): 0.127 µL/min/mg Protein | rCYP Clint, CYP2D6 (rCYP2D6; [11]): 0.013 µL/min/pmol | % Metabolized at 30 min Incubation with Human Liver Fractions/Enzymes rCYP2C19 (rCYP2C19): 21.17% | % Contribution of CYP Enzymes (fmCYP) in Metabolism, CYP2C19 (rCYP2C19; [12]): 2.44% | Predicted Microsomal Clint, CYP2C19 (rCYP2C19; [12]): 1.507 µL/min/mg Protein | rCYP Clint, CYP2C19 (rCYP2C19; [12]): 0.079 µL/min/pmol

triclabendazole sulfoxide
% Metabolized at 30 min Incubation with Human Liver Fractions/Enzymes Cytosol [1]: 0.00% | % Inhibition of Control Activity CYP3A4 (substrate, testosterone) (CYP3A4 [2]; 2 µM): 0.18% | % Inhibition of Control Activity CYP3A4 (substrate, testosterone) (CYP3A4 [2]; 10 µM): 14.43% | Predicted Microsomal Clint, CYP3A4 (rCYP3A4): 1.626 µL/min/mg Protein | % Metabolized at 30 min Incubation with Human Liver Fractions/Enzymes rCYP3A4 (rCYP3A4; 1 µM test compound, 100 pmol/mL, 30 min): 4.30% | rCYP Clint, CYP3A4 (rCYP3A4; human, recombinant enzyme): 0.015 µL/min/pmol | % Contribution of CYP Enzymes (fmCYP) in Metabolism, CYP3A4 (rCYP3A4; recombinant enzyme): 2.35% | Cmax ([6]; human patients at therapeutic doses of triclabendazole): 38.6 µM | half-life ([6]; humans): 11 to 12 h | peak concentration ([6]; humans, standard dose of triclabendazole of 10 mg/kg): 38.6 µM | % Metabolized at 30 min Incubation with Human Liver Fractions/Enzymes HLM [5]: 18.08% | % Inhibition of Control Activity CYP1A2 (CYP1A2; inhibitor 2 µM): 39.42% | % Inhibition of Control Activity CYP1A2 (CYP1A2; inhibitor 10 µM): 69.42% | IC50 (CYP1A2; read-out: IC50 CYP 1A2): 4.19 µM | % Inhibition of Control Activity CYP2C8 (CYP2C8; inhibitor 2 µM, HLM): 11.20% | % Inhibition of Control Activity CYP2C8 (CYP2C8; inhibitor 10 µM, HLM): 53.67% | IC50 (CYP2C8; read-out: IC50 CYP 2C8, HLM): 8.95 µM | % Inhibition of Control Activity CYP2C9 (CYP2C9; inhibitor 2 µM): 49.60% | % Inhibition of Control Activity CYP2C9 (CYP2C9; inhibitor 10 µM): 86.62% | IC50 (CYP2C9; read-out: IC50 CYP 2C9): 1.95 µM | % Inhibition of Control Activity CYP2C19 (CYP2C19; inhibitor 2 µM): 84.33% | % Inhibition of Control Activity CYP2C19 (CYP2C19; inhibitor 10 µM): 88.87% | IC50 (CYP2C19; read-out: IC50 CYP 2C19): 0.22 µM | % Inhibition of Control Activity CYP2D6 (CYP2D6; inhibitor 2 µM): 1.63% | % Inhibition of Control Activity CYP2D6 (CYP2D6; inhibitor 10 µM): 3.13% | Predicted Microsomal Clint, CYP1A2 (rCYP1A2): 3.968 µL/min/mg Protein | % Metabolized at 30 min Incubation with Human Liver Fractions/Enzymes rCYP1A2 (rCYP1A2): 20.46% | rCYP Clint, CYP1A2 (rCYP1A2; human, recombinant enzyme): 0.076 µL/min/pmol | % Contribution of CYP Enzymes (fmCYP) in Metabolism, CYP1A2 (rCYP1A2; recombinant enzyme): 5.73% | % Metabolized at 30 min Incubation with Human Liver Fractions/Enzymes rCYP2C8 (rCYP2C8): 0.00% | Predicted Microsomal Clint, CYP2C9 (rCYP2C9): 57.057 µL/min/mg Protein | % Metabolized at 30 min Incubation with Human Liver Fractions/Enzymes rCYP2C9 (rCYP2C9): 83.19% | rCYP Clint, CYP2C9 (rCYP2C9; human, recombinant enzyme): 0.594 µL/min/pmol | % Contribution of CYP Enzymes (fmCYP) in Metabolism, CYP2C9 (rCYP2C9; recombinant enzyme): 82.43% | Predicted Microsomal Clint, CYP2D6 (rCYP2D6): 0.125 µL/min/mg Protein | % Metabolized at 30 min Incubation with Human Liver Fractions/Enzymes rCYP2D6 (rCYP2D6): 3.68% | rCYP Clint, CYP2D6 (rCYP2D6; human, recombinant enzyme): 0.012 µL/min/pmol | % Contribution of CYP Enzymes (fmCYP) in Metabolism, CYP2D6 (rCYP2D6; recombinant enzyme): 0.18% | Predicted Microsomal Clint, CYP2C19 (rCYP2C19): 6.442 µL/min/mg Protein | % Metabolized at 30 min Incubation with Human Liver Fractions/Enzymes rCYP2C19 (rCYP2C19): 63.84% | rCYP Clint, CYP2C19 (rCYP2C19; human, recombinant enzyme): 0.339 µL/min/pmol | % Contribution of CYP Enzymes (fmCYP) in Metabolism, CYP2C19 (rCYP2C19; recombinant enzyme): 9.31%
